PMC8698454, “Anti-Colonization Effect of Au Surfaces with Self-Assembled Molecular Monolayers Functionalized with Antimicrobial Peptides on S. epidermidis” (Antibiotics, 2021)
≈ marks a conversion by molar mass, not a printed value. Read-outs that look alike come from different tables or passages of the source. Where a SMILES comes first, the peptide text is derived from it. [ ]: non-standard residue; d: D form. Lys(N3) = [N-]=[N+]=NCCCC[C@H](N)C(=O)O

Columns and labels:
[1] = tested on: Gram-positive bacteria; assay type: cell-based, S. aureus and S. epidermidis
Method: (§1) The minimal inhibitory concentration (MIC) of peptides 1a, 1b, 2a, and 2b were determined by broth microdilution according to the Clinical Laboratory Standard Institute (CLSI) method […]-A9. The MICs of the peptides 1c, 1d, 2c, and 2d were determined by broth dilution according to the European Committee for Antimicrobial Susceptibility Testing (EUCAST). Final concentrations of 0.5-256 μg/mL were tested against a panel of reference bacteria-S. aureus (ATCC 9144), S. epidermidis (1457), E. coli (ATCC 25922), and P. aeruginosa (ATCC 27853). Each strain was tested in biological triplicate. The MIC values were defined as the lowest concentration of the peptides resulting in no visual growth.

[2] = tested on: Escherichia coli ATCC 25922; assay type: cell-based; conditions: for Antimicrobial Activity (MIC) E. coli: ATCC 25922; for MIC E. coli ATCC 25922: Table S3
Method: as §1

[3] = tested on: Staphylococcus epidermidis 1457; assay type: cell-based; conditions: for MIC S. epidermidis 1457: Table S3
Method: as §1

[4] = tested on: Pseudomonas aeruginosa ATCC 27853; assay type: cell-based; conditions: for Antimicrobial Activity (MIC) P. aeruginosa: ATCC 27853; for MIC P. aeruginosa ATCC 27853: Table S3
Method: as §1

[5] = tested on: Staphylococcus aureus ATCC 9144; assay type: cell-based; conditions: for Antimicrobial Activity (MIC) S. aureus: ATCC 9144; for MIC S. aureus ATCC 9144: Table S3
Method: as §1

[6] = technical replicate 1, biological replicate BR1
[7] = technical replicate 1, biological replicate BR2
[8] = technical replicate 1, biological replicate BR3
[9] = technical replicate 2, biological replicate BR1
[10] = technical replicate 2, biological replicate BR2
[11] = technical replicate 2, biological replicate BR3
[12] = technical replicate 3, biological replicate BR1
[13] = technical replicate 3, biological replicate BR2
[14] = technical replicate 3, biological replicate BR3
[15] = broth microdilution CLSI M07-A9 (1a,1b,2a,2b) or broth dilution EUCAST (1c,1d,2c,2d), 0.5-256 µg/mL tested, biological triplicate, no visual growth

Compound: [N-]=[N+]=NCCCC[C@@H]1NC(=O)[C@H](Cc2ccccc2)NC(=O)[C@H](CCCNC(=N)N)NC(=O)[C@H](Cc2c[nH]c3ccccc23)NC(=O)[C@H](Cc2c[nH]c3ccccc23)NC(=O)[C@H](CCCNC(=N)N)NC1=O [1d] (cyclo(RWWRF[Lys(N3)]))
- MIC against Gram-positive bacteria [1]: 8 µg/mL (≈ 8.11 µM)
- Antimicrobial Activity (MIC) E. coli [2]: 64 µg/mL
- MIC E. coli ATCC 25922 [2, 6]: 64 µg/mL (≈ 64.9 µM)
- MIC E. coli ATCC 25922 [2, 7]: 64 µg/mL (≈ 64.9 µM)
- MIC E. coli ATCC 25922 [2, 8]: 64 µg/mL (≈ 64.9 µM)
- MIC E. coli ATCC 25922 [2, 9]: 64 µg/mL (≈ 64.9 µM)
- MIC E. coli ATCC 25922 [2, 10]: 64 µg/mL (≈ 64.9 µM)
- MIC E. coli ATCC 25922 [2, 11]: 64 µg/mL (≈ 64.9 µM)
- MIC E. coli ATCC 25922 [2, 12]: 64 µg/mL (≈ 64.9 µM)
- MIC E. coli ATCC 25922 [2, 13]: 64 µg/mL (≈ 64.9 µM)
- MIC E. coli ATCC 25922 [2, 14]: 64 µg/mL (≈ 64.9 µM)
- Antimicrobial Activity (MIC) S. epidermidis [3]; 1457: 8 µg/mL
- MIC S. epidermidis 1457 [3, 6]: 8 µg/mL (≈ 8.11 µM)
- MIC S. epidermidis 1457 [3, 7]: 8 µg/mL (≈ 8.11 µM)
- MIC S. epidermidis 1457 [3, 8]: 16 µg/mL (≈ 16.2 µM)
- MIC S. epidermidis 1457 [3, 9]: 8 µg/mL (≈ 8.11 µM)
- MIC S. epidermidis 1457 [3, 10]: 8 µg/mL (≈ 8.11 µM)
- MIC S. epidermidis 1457 [3, 11]: 16 µg/mL (≈ 16.2 µM)
- MIC S. epidermidis 1457 [3, 12]: 8 µg/mL (≈ 8.11 µM)
- MIC S. epidermidis 1457 [3, 13]: 8 µg/mL (≈ 8.11 µM)
- MIC S. epidermidis 1457 [3, 14]: 16 µg/mL (≈ 16.2 µM)
- Antimicrobial Activity (MIC) P. aeruginosa [4]: 128 µg/mL
- MIC P. aeruginosa ATCC 27853 [4, 6]: 128 µg/mL (≈ 130 µM)
- MIC P. aeruginosa ATCC 27853 [4, 7]: 256 µg/mL (≈ 260 µM)
- MIC P. aeruginosa ATCC 27853 [4, 8]: 128 µg/mL (≈ 130 µM)
- MIC P. aeruginosa ATCC 27853 [4, 9]: 128 µg/mL (≈ 130 µM)
- MIC P. aeruginosa ATCC 27853 [4, 10]: 256 µg/mL (≈ 260 µM)
- MIC P. aeruginosa ATCC 27853 [4, 11]: 128 µg/mL (≈ 130 µM)
- MIC P. aeruginosa ATCC 27853 [4, 12]: 128 µg/mL (≈ 130 µM)
- MIC P. aeruginosa ATCC 27853 [4, 13]: 256 µg/mL (≈ 260 µM)
- MIC P. aeruginosa ATCC 27853 [4, 14]: 128 µg/mL (≈ 130 µM)
- Antimicrobial Activity (MIC) S. aureus [5]: 8 µg/mL
- MIC S. aureus ATCC 9144 [5, 6]: 8 µg/mL (≈ 8.11 µM)
- MIC S. aureus ATCC 9144 [5, 7]: 16 µg/mL (≈ 16.2 µM)
- MIC S. aureus ATCC 9144 [5, 8]: 8 µg/mL (≈ 8.11 µM)
- MIC S. aureus ATCC 9144 [5, 9]: 8 µg/mL (≈ 8.11 µM)
- MIC S. aureus ATCC 9144 [5, 10]: 16 µg/mL (≈ 16.2 µM)
- MIC S. aureus ATCC 9144 [5, 11]: 8 µg/mL (≈ 8.11 µM)
- MIC S. aureus ATCC 9144 [5, 12]: 8 µg/mL (≈ 8.11 µM)
- MIC S. aureus ATCC 9144 [5, 13]: 16 µg/mL (≈ 16.2 µM)
- MIC S. aureus ATCC 9144 [5, 14]: 16 µg/mL (≈ 16.2 µM)

Compound: N3-PEG400-RWWRF [1b, azidopeptide N3-PEG400-RWWRF, PEG400-linked, amidated C-terminus]
- Antimicrobial Activity (MIC) E. coli [2, 15]: >256 µg/mL
- MIC E. coli ATCC 25922 [2, 6]: > 256 µg/mL
- MIC E. coli ATCC 25922 [2, 7]: > 256 µg/mL
- MIC E. coli ATCC 25922 [2, 8]: > 256 µg/mL
- MIC E. coli ATCC 25922 [2, 9]: > 256 µg/mL
- MIC E. coli ATCC 25922 [2, 10]: > 256 µg/mL
- MIC E. coli ATCC 25922 [2, 11]: > 256 µg/mL
- MIC E. coli ATCC 25922 [2, 12]: > 256 µg/mL
- MIC E. coli ATCC 25922 [2, 13]: > 256 µg/mL
- MIC E. coli ATCC 25922 [2, 14]: > 256 µg/mL
- MIC S. epidermidis 1457 [3, 6]: 128 µg/mL
- MIC S. epidermidis 1457 [3, 7]: 128 µg/mL
- MIC S. epidermidis 1457 [3, 8]: 64 µg/mL
- MIC S. epidermidis 1457 [3, 9]: 128 µg/mL
- MIC S. epidermidis 1457 [3, 10]: 128 µg/mL
- MIC S. epidermidis 1457 [3, 11]: 128 µg/mL
- MIC S. epidermidis 1457 [3, 12]: 128 µg/mL
- MIC S. epidermidis 1457 [3, 13]: 128 µg/mL
- MIC S. epidermidis 1457 [3, 14]: 64 µg/mL
- Antimicrobial Activity (MIC) S. epidermidis ([3]; strain 1457, broth microdilution CLSI M07-A9 (1a,1b,2a,2b) or broth dilution EUCAST (1c,1d,2c,2d), 0.5-256 µg/mL tested, biological triplicate, no visual growth): 128 µg/mL
- Antimicrobial Activity (MIC) P. aeruginosa [4, 15]: >256 µg/mL
- MIC P. aeruginosa ATCC 27853 [4, 6]: > 256 µg/mL
- MIC P. aeruginosa ATCC 27853 [4, 7]: > 256 µg/mL
- MIC P. aeruginosa ATCC 27853 [4, 8]: > 256 µg/mL
- MIC P. aeruginosa ATCC 27853 [4, 9]: > 256 µg/mL
- MIC P. aeruginosa ATCC 27853 [4, 10]: > 256 µg/mL
- MIC P. aeruginosa ATCC 27853 [4, 11]: > 256 µg/mL
- MIC P. aeruginosa ATCC 27853 [4, 12]: > 256 µg/mL
- MIC P. aeruginosa ATCC 27853 [4, 13]: > 256 µg/mL
- MIC P. aeruginosa ATCC 27853 [4, 14]: > 256 µg/mL
- Antimicrobial Activity (MIC) S. aureus ([5]; broth microdilution CLSI M07-A9 (1a,1b,2a,2b) or broth dilution EUCAST (1c,1d,2c,2d), 0.5-256 µg/mL tested, biological triplicate, lowest concentration with no visual growth): 128 µg/mL
- MIC S. aureus ATCC 9144 [5, 6]: 128 µg/mL
- MIC S. aureus ATCC 9144 [5, 7]: 128 µg/mL
- MIC S. aureus ATCC 9144 [5, 8]: 128 µg/mL
- MIC S. aureus ATCC 9144 [5, 9]: 128 µg/mL
- MIC S. aureus ATCC 9144 [5, 10]: 128 µg/mL
- MIC S. aureus ATCC 9144 [5, 11]: 128 µg/mL
- MIC S. aureus ATCC 9144 [5, 12]: 128 µg/mL
- MIC S. aureus ATCC 9144 [5, 13]: 128 µg/mL
- MIC S. aureus ATCC 9144 [5, 14]: 128 µg/mL
